Experimental data as given in PMC9138790 (2022).

Tested on: polyA (polyadenine) (DNA, polymer) A
Experiment: differential pulse voltammetry, dAdo oxidation signal decrease
Settings: 0.1 M acetate buffer pH 4.7; 10 µg/mL CIN, 20 min; dAdo signal falls to S% 50

## C[C@@H](NCCCc1cccc(C(F)(F)F)c1)c1cccc2ccccc12
  binding: yes
